Measured values published in patent publication US10028956B2, “Methods of treating various cancers using an AXL/cMET inhibitor in combination with other agents” (Ignyta, Inc., priority 2013, dated 2018).
Marks after values point to notes of the source that are not given here.

Legend:
[1] = tested on: CTG-0192 erlotinib-sensitive NSCLC TumorGraft; assay: NSCLC TumorGraft model CTG-0192; assay type: in vivo, mice; conditions: for % Tumor Growth Inhibition: CTG-0192, 32 days
Description: Methods (for the experiments shown in FIGS. 10 and 11) • Female immunocompromised nu/nu mice (Harlan) between 6-9 weeks of age were housed on irradiated papertwist-enriched ⅛″ corncob bedding (Sheperd) in individual HEPA ventilated cages (Innocage® IVC, Innovive USA) on a 12-hour light-dark cycle at 68-74° F. (20-23° C.) and 30-70% humidity. Animals were fed water ad libitum (reverse osmosis, 2 ppm Cl2) and an irradiated Test rodent diet (Teklad 2919) consisting of 19% protein, 9% fat, and 4% fiber. • Tumor Models: Champions TumorGraft models of NSCLC are owned by Champions Oncology. In this study, animals were implanted unilaterally on the right flank with tumor fragments harvested from host animals. […] Erlotinib (manufacturer: OSI Pharmaceuticals; National Drug Code: 50242-062-01; Lot #: US0002) was formulated using 100% PEG-400 as the vehicle according to manufacturer's specifications.
Efficacy measurements: Beginning Day 0, tumor dimensions were measured twice weekly by digital caliper (Fowler Ultra-Cal IV) and data including individual and mean estimated tumor volumes (Mean TV±SEM) were recorded for each group; tumor volume was calculated using the formula TV=width^2×length×0.52. At study completion, percent tumor growth inhibition (% TGI) values were calculated and reported for each treatment group (T) versus control (C) using initial (i) and final (f) tumor measurements by the formula: % TGI=1−Tf−Ti/Cf−C; single agent or combination therapies resulting in a TGI>50 at study completion are considered active in the tested model at the evaluated treatment regimen according to NCI guidelines. Individual mice reporting a tumor volume ≤50% of the Day 0 measurement for two consecutive measurements over a seven day period were considered partial responders (PR). If the PR persisted until study completion, percent tumor regression (% TR) was determined using the formula: % TR=1−Tf/Ti×100; a mean value was calculated if multiple PR mice occurred in one group. Individual mice lacking palpable tumors (<4×4 mm^2 for two consecutive measurements over a seven day period) were classified as complete responders (CR); a CR that persisted until study completion was considered a tumor-free survivor (TFS). TFS animals are excluded from efficacy calculations. Statistical differences in tumor volume were determined using a two-tailed One-Way Analysis of Variance (ANOVA) followed by the Dunett's multiple comparisons test comparing treated groups with control and combinations with standard agent alone when possible. All data collected in this study was managed electronically and stored on a redundant server system.

[2] = tested on: MDA-MB-231-Leu orthotopic breast tumor xenografts; assay: Metastases of MDA-MB-231-Leu orthotopic breast tumor xenografts; assay type: in vivo, mice; conditions: oral administration, 10 and 30 mg/kg qd
Description: The human breast cancer cell line MDA-MB-231-Leu-D3H2LN-luciferase expressing cell line was purchased from Caliper Life Sciences. This tumor cell line was generated by stable transfection of the firefly luciferase gene expressed from the SV40 promoter and further selected for its metastatic potential upon isolation from a spontaneous lymph node metastasis of MDA-MB-231-Luc cells in immune-compromised mice. The cells were grown in DMEM medium supplemented with 10% fetal bovine serum (FBS, Cat^# SH3007003, Hyclone, Logan, Utah). D-Luciferin firefly/potassium salt (Cat. # L-8220) was purchased from Biosynth International, Inc., Itasca, Ill.). Female nu/nu mice (6 to 8 weeks old) were purchased from Harlan Laboratories. […] Mouse body weights were measured on day 0 and then every 7 days, and bioluminescence image analysis performed at the end of the study using the Caliper Life Sciences (Xenogen) Spectrum imager as detailed in FIG. 6. Images of the primary tumor and potential metastatic tumors in lymph nodes were taken weekly, starting on day 7 post cell implantation. Prior to image acquisition, each mouse were give a 0.2 ml intra-peritoneal injection of D-Luciferin firefly/potassium salt and images were acquired 6-10 minutes post substrate administration. […] Counts were converted to average radiance or mean photon flux; expressed as photons per second (p/s). […]

[3] = tested on: 4T1-Luc2 murine mammary carcinoma cells; assay: 4T1-Luc2 systemic dissemination; assay type: in vivo, mice
Description: The murine breast cancer cell line 4T1-luciferase tagged cell line generated by stable transfection of the firefly luciferase gene expressed from the SV40 promoter was purchased from Caliper Life Sciences. The cells were grown in DMEM medium supplemented with 10% fetal bovine serum (FBS, Cat^# SH3007003, Hyclone, Logan, Utah). D-Luciferin firefly/potassium salt (Cat. # L-8220) was purchased from Biosynth International, Inc., Itasca, Ill.). Female Balb-c mice (6-8 weeks) were purchased from Charles River laboratories. […] Two days later, the mouse body weights were measured twice a week and the mice were subjected for full body in vivo imaging thrice a week. Treatments were given for a total of 23 days, with 21 days post tumor cell seeding. Bioluminescence image analysis was performed at the end of the study using a Caliper Life Sciences (Xenogen) Spectrum in vivo imaging machine. Each cage of five mice was anesthetized using isofluorane and imaged for a series of time points from 0.5-5 minutes max. Image analysis was performed using Living Image Software (vs. 4.0, 2010) using subjective but equally sized gates or regions of interest (ROIs) overlaid on each animal image. Counts were converted to average radiance or mean photon flux; expressed as photons per second per cm2 of surface area, (p/s/cm2/sr). […]

[4] = target: c-Met (Homo sapiens, UniProt P08581); assay: c-Met enzyme inhibition; assay type: biochemical
Sequence of c-Met (P08581 25-1390): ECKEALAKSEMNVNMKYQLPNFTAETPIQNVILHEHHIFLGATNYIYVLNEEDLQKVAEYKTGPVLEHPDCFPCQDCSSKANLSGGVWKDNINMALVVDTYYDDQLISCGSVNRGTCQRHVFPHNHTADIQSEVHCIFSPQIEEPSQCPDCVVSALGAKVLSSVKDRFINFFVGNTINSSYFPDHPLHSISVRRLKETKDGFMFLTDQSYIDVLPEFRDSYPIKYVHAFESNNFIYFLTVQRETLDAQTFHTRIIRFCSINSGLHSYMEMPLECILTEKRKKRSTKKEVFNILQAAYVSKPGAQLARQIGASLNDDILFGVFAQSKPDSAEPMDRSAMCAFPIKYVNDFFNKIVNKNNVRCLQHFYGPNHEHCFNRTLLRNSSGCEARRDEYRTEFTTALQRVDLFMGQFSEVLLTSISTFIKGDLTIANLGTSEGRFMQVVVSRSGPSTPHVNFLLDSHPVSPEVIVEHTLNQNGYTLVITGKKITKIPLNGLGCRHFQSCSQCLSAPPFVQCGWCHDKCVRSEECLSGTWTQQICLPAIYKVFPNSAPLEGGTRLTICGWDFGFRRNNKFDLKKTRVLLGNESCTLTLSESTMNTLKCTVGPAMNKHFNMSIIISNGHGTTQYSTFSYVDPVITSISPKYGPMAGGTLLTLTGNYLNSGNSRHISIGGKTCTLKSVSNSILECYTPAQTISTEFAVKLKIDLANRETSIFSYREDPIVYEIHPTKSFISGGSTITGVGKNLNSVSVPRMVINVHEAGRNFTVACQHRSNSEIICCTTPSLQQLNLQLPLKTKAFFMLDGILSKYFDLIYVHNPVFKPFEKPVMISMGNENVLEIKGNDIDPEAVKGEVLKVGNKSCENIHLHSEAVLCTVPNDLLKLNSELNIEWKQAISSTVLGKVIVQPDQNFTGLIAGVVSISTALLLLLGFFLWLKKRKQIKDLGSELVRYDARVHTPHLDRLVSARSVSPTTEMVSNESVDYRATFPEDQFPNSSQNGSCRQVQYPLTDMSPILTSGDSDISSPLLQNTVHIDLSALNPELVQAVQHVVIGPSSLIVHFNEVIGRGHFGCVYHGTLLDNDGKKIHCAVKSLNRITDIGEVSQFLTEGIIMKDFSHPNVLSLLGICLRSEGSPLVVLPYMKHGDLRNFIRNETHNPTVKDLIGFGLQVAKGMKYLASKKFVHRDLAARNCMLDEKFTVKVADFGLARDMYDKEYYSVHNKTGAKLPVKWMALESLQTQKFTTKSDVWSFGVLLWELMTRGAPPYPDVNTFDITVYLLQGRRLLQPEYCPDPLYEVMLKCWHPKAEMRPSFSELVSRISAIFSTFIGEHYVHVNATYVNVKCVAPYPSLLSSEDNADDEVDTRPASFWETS

Which “acquired resistance during the treatment phase” value ([1]; CTG-0192) does the source give for `COc1cc2nccc(Oc3ccc(NC(=O)c4cn(C(C)C)c(=O)n(-c5ccc(F)cc5)c4=O)cc3F)c2cc1OC` [CEP-40783, 3-(4-Fluorophenyl)-1-isopropyl-2,4-dioxo-1,2,3,4-tetrahydropyrimidine-5-carboxylic acid [4-(6,7-dimethoxyquinolin-4-yloxy)-3-fluorophenyl]-amide] here?
The value was “no acquired resistance”.

And the “% Tumor Growth Inhibition” value ([1]; 10 mg/kg po/qd)?
The value was 85%*.

And the “% Tumor Growth Inhibition” value ([1]; 30 mg/kg po/qd)?
Its value is 71%*.

What about the “tumor response, single agent” value ([1]; CTG-0192, also after dosing discontinued (day 34)) of the same compound?
The value was “significant TGI/tumor stasis was maintained even after dosing was discontinued”.

And the “spontaneous lymph node and pulmonary metastatic tumor burden” value [2]?
Its value is “efficacious in reducing spontaneous lymph node and pulmonary metastatic tumor burden”.

What about the “systemic 4T1 mammary tumor dissemination” value ([3]; 1 mg/kg po qd) of the same compound?
Its value is “significant, albeit of lesser magnitude, reduction”.

What about the “systemic 4T1 mammary tumor dissemination” value ([3]; 10 mg/kg and 30 mg/kg po qd) of the same compound?
Its value is “highly significant reductions”.

And the IC50 [4]?
Its IC50 is 12 nM.
